Assay results: PubChem BioAssay (NCI)
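Assay format: 96-well plates, 48-hour exposure. GI50: concentration for 50% inhibition of growth. At the TGI there is no net growth.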

Legend:
Test in all cases: NCI-60 cell line screen, 48 h
[1] = system: SF-539 CNS
[2] = system: MCF7 breast
[3] = system: HS 578T breast
[4] = system: KM12 colon
[5] = system: NCI/ADR-RES ovarian
[6] = system: T-47D breast
[7] = system: SN12C renal
[8] = system: HCC-2998 colon
[9] = system: CAKI-1 renal
[10] = system: OVCAR-3 ovarian
[11] = system: EKVX NSCLC
[12] = system: IGROV1 ovarian
[13] = system: ACHN renal
[14] = system: UO-31 renal
[15] = system: HCT-15 colon
[16] = system: NCI-H522 lung
[17] = system: MDA-MB-231 breast
[18] = system: SF-268 CNS
[19] = system: SK-MEL-5 melanoma
[20] = system: NCI-H226 lung
[21] = system: OVCAR-5 ovarian
[22] = system: OVCAR-4 ovarian
[23] = system: HCT-116 colon
[24] = system: UACC-257 melanoma
[25] = system: HOP-92 NSCLC
[26] = system: SR leukemia
[27] = system: M14 melanoma
[28] = system: 786-0 renal
[29] = system: SK-MEL-2 melanoma
[30] = system: NCI-H23 lung
[31] = system: MDA-MB-435
[32] = system: HOP-62 NSCLC
[33] = system: HL-60(TB) leukemia
[34] = system: A498 renal
[35] = system: CCRF-CEM leukemia
[36] = system: UACC-62 melanoma
[37] = system: SK-OV-3 ovarian
[38] = system: MALME-3M melanoma
[39] = system: DU-145 prostate
[40] = system: RXF 393 renal
[41] = system: U251 CNS
[42] = system: COLO 205 colon
[43] = system: OVCAR-8 ovarian
[44] = system: MOLT-4 leukemia
[45] = system: SNB-75 CNS
[46] = system: K-562 leukemia
[47] = system: TK-10 renal
[48] = system: HT29 colon
[49] = system: RPMI-8226 leukemia
[50] = system: SNB-19 CNS
[51] = system: A549 NSCLC
[52] = system: SK-MEL-28 melanoma
[53] = system: LOX IMVI melanoma
[54] = system: PC-3 prostate
[55] = system: NCI-H460 lung
[56] = system: BT-549 breast
[57] = system: SW-620 colon
[58] = system: SF-295 CNS

C[C@]12CCC(=O)CC1CC[C@@H]1C2CC[C@@]2(C)C1CC[C@@H]2OC(=O)CC[Se][Se]CCC(=O)O[C@H]1CCC2[C@@H]3CCC4CC(=O)CC[C@]4(C)C3CC[C@@]21C (some centres not stated)
GI50 [1]: 3.22 µM | TGI [1]: 10.5 µM | GI50 [2]: 3.85 µM | TGI [2]: 12 µM | GI50 [3]: 2.02 µM | TGI [3]: 7.79 µM | GI50 [4]: 4.09 µM | TGI [4]: 14.5 µM | GI50 [5]: 3.03 µM | TGI [5]: 11.4 µM | GI50 [6]: 9.1 µM | TGI [6]: 27.1 µM | GI50 [7]: 1.82 µM | TGI [7]: 3.75 µM | GI50 [8]: 13.4 µM | TGI [8]: 31.6 µM | GI50 [9]: 1.64 µM | TGI [9]: 5.09 µM | GI50 [10]: 2.73 µM | TGI [10]: 6.84 µM | GI50 [11]: 2.44 µM | GI50 [12]: 2.13 µM | TGI [12]: 4.3 µM | GI50 [13]: 3.61 µM | TGI [13]: 13.2 µM | GI50 [14]: 2.61 µM | TGI [14]: 10.7 µM | GI50 [15]: 3.64 µM | TGI [15]: 16 µM | GI50 [16]: 3.17 µM | TGI [16]: 10.9 µM | GI50 [17]: 1.57 µM | TGI [17]: 3.36 µM | GI50 [18]: 1.86 µM | TGI [18]: 3.79 µM | GI50 [19]: 1.77 µM | TGI [19]: 3.35 µM | GI50 [20]: 2.25 µM | TGI [20]: 5.79 µM | GI50 [21]: 6.5 µM | TGI [21]: 25.1 µM | GI50 [22]: 3.51 µM | TGI [22]: 15.6 µM | GI50 [23]: 2.01 µM | TGI [23]: 4.16 µM | GI50 [24]: 2.86 µM | TGI [24]: 13 µM | GI50 [25]: 2.22 µM | TGI [25]: 6.04 µM | GI50 [26]: 4.28 µM | TGI [26]: > 100 µM | GI50 [27]: 2.28 µM | TGI [27]: 5.69 µM | GI50 [28]: 3.25 µM | TGI [28]: 9.36 µM | GI50 [29]: 2.67 µM | TGI [29]: 5.7 µM | GI50 [30]: 3.63 µM | TGI [30]: 18.4 µM | GI50 [31]: 1.82 µM | TGI [31]: 3.83 µM | GI50 [32]: 2.52 µM | TGI [32]: 5.34 µM | GI50 [33]: 4.15 µM | TGI [33]: > 100 µM | GI50 [34]: 1.76 µM | TGI [34]: 4.15 µM | GI50 [35]: 3.54 µM | TGI [35]: > 100 µM | GI50 [36]: 2.2 µM | TGI [36]: 8.05 µM | GI50 [37]: 7.15 µM | TGI [37]: 17.4 µM | GI50 [38]: 1.83 µM | TGI [38]: 3.63 µM | GI50 [39]: 2.19 µM | TGI [39]: 5.05 µM | GI50 [40]: 2.08 µM | TGI [40]: 7.95 µM | GI50 [41]: 1.91 µM | TGI [41]: 3.85 µM | GI50 [42]: 2.17 µM | TGI [42]: 4.01 µM | GI50 [43]: 3.06 µM | TGI [43]: 9.84 µM | GI50 [44]: 4.67 µM | TGI [44]: > 100 µM | GI50 [45]: 1.48 µM | TGI [45]: 3.02 µM | GI50 [46]: 10 µM | TGI [46]: > 100 µM | GI50 [47]: 2.1 µM | TGI [47]: 4.79 µM | GI50 [48]: 2.5 µM | TGI [48]: 6.01 µM | GI50 [49]: 5.03 µM | TGI [49]: > 100 µM | GI50 [50]: 2.25 µM | TGI [50]: 6.43 µM | GI50 [51]: 1.94 µM | TGI [51]: 4.39 µM | GI50 [52]: 2.01 µM | TGI [52]: 5.05 µM | GI50 [53]: 2.12 µM | TGI [53]: 5.07 µM | GI50 [54]: 2.55 µM | TGI [54]: 8.27 µM | GI50 [55]: 2.84 µM | TGI [55]: 9.81 µM | GI50 [56]: 2.1 µM | TGI [56]: 4.52 µM | GI50 [57]: 4.81 µM | TGI [57]: 20 µM

O=c1cc(NCC(O)CN2CCOCC2)n(Cc2ccccc2)c(=O)n1Cc1ccccc1 (configuration not stated)
GI50 [1]: 60.2 µM | TGI [1]: > 100 µM | GI50 [2]: 41.8 µM | TGI [2]: > 100 µM | GI50 [3]: 37.8 µM | TGI [3]: > 100 µM | GI50 [4]: 36.1 µM | TGI [4]: > 100 µM | GI50 [5]: 65.7 µM | TGI [5]: > 100 µM | GI50 [6]: 61 µM | TGI [6]: > 100 µM | GI50 [7]: 42.3 µM | TGI [7]: > 100 µM | GI50 [8]: 34.9 µM | TGI [8]: > 100 µM | GI50 [9]: 85.9 µM | TGI [9]: > 100 µM | GI50 [10]: 56.2 µM | TGI [10]: > 100 µM | GI50 [11]: 70.6 µM | TGI [11]: > 100 µM | GI50 [12]: 33.5 µM | TGI [12]: 86.3 µM | GI50 [13]: 49.8 µM | TGI [13]: > 100 µM | GI50 [14]: 27.3 µM | TGI [14]: 85.8 µM | GI50 [15]: 45.5 µM | TGI [15]: > 100 µM | GI50 [16]: 28.1 µM | TGI [16]: 72 µM | GI50 [17]: 19.2 µM | TGI [17]: 53.6 µM | GI50 [18]: 63.6 µM | TGI [18]: > 100 µM | GI50 [19]: 19.2 µM | TGI [19]: 35 µM | GI50 [20]: 56.8 µM | TGI [20]: > 100 µM | GI50 [21]: > 100 µM | TGI [21]: > 100 µM | GI50 [22]: 39.9 µM | TGI [22]: > 100 µM | GI50 [23]: 34.8 µM | TGI [23]: > 100 µM | GI50 [24]: 30.2 µM | TGI [24]: 85.8 µM | GI50 [58]: 41.2 µM | TGI [58]: > 100 µM | GI50 [25]: 21.7 µM | TGI [25]: 77.1 µM | GI50 [26]: 19.8 µM | TGI [26]: 49.3 µM | GI50 [28]: 41.4 µM | TGI [28]: > 100 µM | GI50 [29]: > 100 µM | TGI [29]: > 100 µM | GI50 [30]: 42.5 µM | TGI [30]: > 100 µM | GI50 [31]: 59.7 µM | TGI [31]: > 100 µM | GI50 [32]: 34.2 µM | TGI [32]: > 100 µM | GI50 [33]: 12.6 µM | TGI [33]: > 100 µM | GI50 [34]: 49.3 µM | TGI [34]: > 100 µM | GI50 [35]: 36.9 µM | TGI [35]: > 100 µM | GI50 [36]: 22.7 µM | TGI [36]: 63.3 µM | GI50 [37]: > 100 µM | TGI [37]: > 100 µM | GI50 [38]: 26.9 µM | TGI [38]: 77.3 µM | GI50 [39]: 51.7 µM | TGI [39]: > 100 µM | GI50 [40]: 30.5 µM | TGI [40]: 92.5 µM | GI50 [41]: 47.6 µM | TGI [41]: > 100 µM | GI50 [42]: 23.5 µM | TGI [42]: 58.6 µM | GI50 [43]: 72.8 µM | TGI [43]: > 100 µM | GI50 [44]: 27.8 µM | TGI [44]: > 100 µM | GI50 [45]: 31.8 µM | TGI [45]: 91.3 µM | GI50 [46]: 30.8 µM | TGI [46]: > 100 µM | GI50 [47]: > 100 µM | TGI [47]: > 100 µM | GI50 [48]: 18.8 µM | TGI [48]: 41.6 µM | GI50 [49]: 28.3 µM | TGI [49]: 78 µM | GI50 [50]: > 100 µM | TGI [50]: > 100 µM | GI50 [51]: 53.5 µM | TGI [51]: > 100 µM | GI50 [52]: 28.7 µM | TGI [52]: 70.3 µM | GI50 [53]: 37.8 µM | TGI [53]: > 100 µM | GI50 [54]: 33.7 µM | TGI [54]: > 100 µM | GI50 [55]: 44.2 µM | TGI [55]: > 100 µM | GI50 [56]: 45.9 µM | TGI [56]: > 100 µM | GI50 [57]: 62.5 µM | TGI [57]: > 100 µM
